What was measured:
[1] = test system: H2O2 production in human monocytes and macrophages; assay: Production of H2O2 in silica-stimulated human monocytes and macrophages; type: cell-based; conditions: 10 μg/ml, 1 hour, 100 μg/ml silica, FIG. 5
Protocol: Normal human peripheral blood was heparin-treated and diluted with equal amount of Hank's balanced salt solution (HBSS: Ca^2+ and Mg^2+ free). The diluted blood was put into a centrifuge tube containing therein Ficoll-Hypaque(Sigma, St. Louis, Mo., U.S.A.) layer having a density of 1.077 piled up on Ficoll-Hypaque layer having a density of 1.119, and then centrifuged at 700×g for 30 minutes to obtain monocytes from the layer between Ficoll-Hypaque layer having a density of 1.077 and serum layer, and neutrophils from the layer between Ficoll-Hypaque layer having a density of 1.077 and that having a density of 1.119. The separated cells were washed twice with 4° C. HBSS(Ca^2+ and Mg^2+ free) and suspended in RPMI 1640 medium(Gibco, Grand Island, N.Y., U.S.A.) containing 10% fetal bovine serum(FBS, Hyclone, Logan, Utah, U.S.A.). […] The amount of H2 O2 was determined by a microassay employing 96-well microplate as follows. […] When the incubation was completed, 3M NaOH was added to the wells in an amount of 25 μl/well to stop the reaction and O.D. was measured at 620 nm by using ELISA reader(Dynatech Lab. Inc.) to determine the change of colors with respect to the oxidation of phenol. The amount of H2 O2 was determined by employing a standard curve prepared by diluted H2 O2 (Sigma). […]

[2] = test system: collagen synthesis in rat pulmonary fibroblast; assay: Inhibition of collagen synthesis in rat pulmonary fibroblasts (indirect ELISA); type: cell-based; conditions: culture of rat pulmonary fibroblast pretreated with acanthoic acid, silica-stimulated; FIG. 7
Protocol: Fibroblasts were separated from rats by using a modification of the method of Phan, S. H., et al. described in J. Clin. Invest., 76, 241(1985), as follows. A rat was anesthetized with ether and its lungs were isolated on the aseptic worktable. The lungs were cut into small pieces in the size ranging from 2 to 4 mm and suspended in phosphate buffered saline(PBS) containing collagenase and 0.5% trypsin to digest the tissues at 37° C. for 2 hours. The suspension was filtered through sterilized gauze to remove undigested tissues, etc. The separated cells were washed with PBS twice or three times and suspended into RPMI 1640 medium(Gibco, Grand Island, N.Y., U.S.A.) containing 10% fetal bovine serum(FBS, Hyclone, Logan, Utah, U.S.A.). […] For the purpose of confirming the ability of acanthoic acid to suppress the action of IL-1 and TNF-α, its inhibitory effect on the collagen synthesis in rat pulmonary fibroblast and pulmonary tissues was determined. The amount of produced collagen in the culture of rat pulmonary fibroblast was measured by an indirect ELISA method, and that of pulmonary tissue was determined by measuring the concentration of hydroxyproline and calculating the amount of collagen therefrom by using the standard curve of internal control group. […]

C=C[C@@]1(C)CC=C2C(CCC3[C@](C)(C(=O)O)CCC[C@@]23C)C1 (single isomer, unassigned; (-)) [acanthoic acid, (-)-pimara-9(11),15-diene-19-oic acid]
amount of H2O2 [1]: decrease significantly
amount of synthesized collagen [2]: decreases significantly

From patent publication US5900434A, “Method for inhibiting the production of interleukin-1 or tumor necrosis factor-α by administering acanthoic acid” (Korea Institute of Science and Technology, priority 1994, dated 1999)
